Measured values published in patent publication US8673929B2, “4,6-di- and 2,4,6-trisubstituted quinazoline derivatives and pharmaceutical compositions useful for treating viral infections” (priority 2006, dated 2014).

Columns and labels:
[1] = system: Huh-7 HCV replicon cells; test: CC50 assay in the anti-HCV replicon assay (CellTiter-Glo); format: cell-based, human; settings: 3 days incubation, CellTiter-Glo luminescence
Summary of the method: (§1)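 Huh-7 cells harbouring an HCV replicon (6000/well) incubated 3 days at 37° C with 3-fold serially diluted compound (0.5% DMSO final where used). EC50 from luciferase luminescence of lysed cells; CC50 from CellTiter-Glo luminescence in parallel plates.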

[2] = target: HCV replicon; test: Anti-HCV replicon assay, EC50 (luciferase readout); format: cell-based; settings: Huh-7 HCV replicon cells, 3 days incubation, luciferase luminescence
Summary of the method: as §1

[3] = CC50 assay in the anti-HCV replicon assay (CellTiter-Glo); format: cell-based, human; settings: human, Huh-7 hepatoma cells harbouring an HCV replicon; Huh-7 HCV replicon cells, 3 days incubation, CellTiter-Glo luminescence
Summary of the method: as §1

Molecule | CC50 [1] | EC50 [2] | CC50 at 3 days [3] | EC50 ([2]; Hepatitis C virus, 72 h)
CONC(=O)c1ccc(-c2ccc3nc(N)nc(OCC4CC4)c3c2)cc1 [Example 136] | 10 to 20 µM | 0.3 to 1 µM |  | 
CCOc1nc(N)nc2ccc(-c3ccc(C(=O)N4CCCCC4)cc3)cc12 [Example 148, [4-(2-amino-4-ethoxy-quinazolin-6-yl)-pheny]-piperidin-1-yl-methanone] | > 20 µM | 1 to 10 µM |  | 
CN(C)CCCOc1nc(N)nc2ccc(-c3ccc(C(F)(F)F)cc3C(F)(F)F)cc12 [Example 226, 6-(2,4-bis-trifluoromethyl-phenyl)-4-(3-dimethyl-aminopropoxy)-quinazolin-2-ylamine] | > 20 µM | 1 to 10 µM |  | 
CN(C)CCCOc1nc(N)nc2ccc(-c3ccc(F)c(Cl)c3)cc12 [Example 228, 6-(3-Chloro-4-fluoro-phenyl)-4-(3-dimethyl-aminopropoxy)-quinazolin-2-ylamine] | > 20 µM | 1 to 10 µM |  | 
Nc1nc(OCCN2CCOCC2)c2cc(-c3cccc(F)c3F)ccc2n1 [Example 243, 6-(2,3-Difluoro-phenyl)-4-(2-morpholin-4-yl-ethoxy)-quinazolin-2-ylamine] |  |  | > 20 µM | 1 to 10 µM
CC(C)Oc1ncnc2ccc(-c3ccsc3)cc12 [Example 244, 4-isopropoxy-6-thiophen-3-yl-quinazoline] |  |  | > 20 µM | 1 to 10 µM
CNC(=O)c1ccc(-c2ccc3ncnc(OC(C)C)c3c2)cc1 [Example 245, 4-(4-Isopropoxy-quinazolin-6-yl)-N-methyl-benzamide] |  |  | > 20 µM | 1 to 10 µM
CCOc1ncnc2ccc(-c3cn[nH]c3)cc12 [Example 247, 4-ethoxy-6-(1H-pyrazo-4-yl)-quinazoline] | > 20 µM | 0.3 to 1 µM |  | 
CC(C)Oc1ncnc2ccc(-c3ccc(F)cc3)cc12 [Example 248, 6-(4-Fluorophenyl)-4-isopropoxy-quinazoline] |  |  | > 20 µM | 1 to 10 µM
CN(C)CCNC(=O)c1ccc(-c2ccc3nc(NCc4ccc(F)cc4)nc(O[C@H]4CCOC4)c3c2)cc1 [Example 249, (S)-4-(2-(4-fluorobenzylamino)-4-(tetrahydrofuran-3-yloxy)quinazolin-6-yl)-N-(2-(dimethylamino)ethyl)benzamide] |  |  | < 10 µM | < 0.3 µM
CCOc1nc(NCc2ccc(S(N)(=O)=O)cc2)nc2ccc(-c3ccc(F)cc3)cc12 [Example 250, 4-{[4-Ethoxy-6-(4-fluoro-phenyl)-quinazolin-2-ylamino]-methyl}-benzenesulfonamide] |  |  | < 10 µM | 1 to 10 µM
CCOc1nc(NCc2ccc(S(N)(=O)=O)cc2)nc2ccc(-c3ccc(F)c(NS(=O)(=O)C4CC4)c3)cc12 [Example 251, 4-{[6-(3-Cyclopropanesulfonylamino-4-fluoro-phenyl)-4-ethoxy-quinazolin-2-ylamino]-methyl}-benzenesulfonamide] |  |  | < 10 µM | < 0.3 µM
CCOc1nc(NCc2ccc(S(N)(=O)=O)cc2)nc2ccc(-c3cccc(S(N)(=O)=O)c3)cc12 [Example 252, 4-{[6-(3-aminosulfonyl-phenyl)-4-ethoxy-quinazolin-2-ylamino]-methyl}-benzenesulfonamide] |  |  | < 10 µM | < 0.3 µM
CCOc1nc(NCc2ccc(S(N)(=O)=O)cc2)nc2ccc(-c3ccc(NC(=O)N4CCCC4)cc3)cc12 [Example 253, pyrrolidine-1-carboxylic acid {4-[4-ethoxy-2-(4-sulfamoyl-benzylamino)-quinazolin-6-yl]-phenyl}-amide] |  |  | 10 to 20 µM | < 0.3 µM
CCOc1nc(NCc2ccc(S(N)(=O)=O)cc2)nc2ccc(-c3ccc(NC(N)=O)cc3)cc12 [Example 254, 4-{[4-ethoxy-6-(4-ureido-phenyl)-quinazolin-2-ylamino]-methyl}-benzenesulfonamide] |  |  | < 10 µM | < 0.3 µM
CCOc1nc(NCc2ccc(S(N)(=O)=O)cc2)nc2ccc(-c3ccc(C(N)=O)cc3)cc12 [Example 255, 4-[4-Ethoxy-2-(4-sulfamoyl-benzylamino)-quinazolin-6-yl]-benzamide] |  |  | < 10 µM | < 0.3 µM
CCOc1nc(NCc2ccc(S(N)(=O)=O)cc2)nc2ccc(-c3ccc(C(=O)NC4CC4)cc3)cc12 [Example 256, N-Cyclopropyl-4-[4-ethoxy-2-(4-sulfamoyl-benzylamino)-auinazolin-6-yl]-benzamide] | < 10 µM | < 0.3 µM |  | 
CCCc1ncnc2ccc(-c3ccc(F)cc3)cc12 [Example 259, 6-(4-Fluoro-phenyl)-4-propyl-quinazoline] |  |  | > 20 µM | 1 to 10 µM
(R)-4-[2-Amino-4-(tetrahydro-furan-3-yloxy)-quinazolin-6-yl]-N-[2-(1-methyl-pyrrolidin-2-yl)-ethyl]-benzamide [Example 221] | 10 to 20 µM | 0.3 to 1 µM |  | 
